Reference: the supplement of paper PMC10883282
± gives the standard deviation of the averaged measurements.

Tested on: KHOS-NP
Assay: relative viability vs DMSO control (72 h) (fraction); higher = more viable cells
Summary of the method: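 Densities for seeding sarcoma cell lines into 384-well plates were set to give 80–90% confluence. After 24 h, 2.5 µl of serially diluted compound from source plates of 10 mM to 0.0002 mM went in, and plates stayed 72 h at 37 °C in 5% CO2 with 0.1% DMSO vehicle and a 5 µM positive control. Percent growth from ATPLite readings, averaged over up to triplicate wells, served as relative viability, rescaled so 1 means full and 0 means none.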

Structure (SMILES) | relative viability (2 pM) | relative viability (5 pM) | relative viability (15 pM) | relative viability (50 pM) | relative viability (0.00014 µM) | relative viability (0.00041 µM) | relative viability (0.0012 µM) | relative viability (0.0037 µM) | relative viability (0.011 µM) | relative viability (200 fM) | relative viability (600 fM) | relative viability (0.00017 µM) | relative viability (0.00051 µM) | relative viability (0.00152 µM) | relative viability (0.00457 µM) | relative viability (0.01372 µM) | relative viability (0.04115 µM) | relative viability (0.1235 µM) | relative viability (0.3704 µM) | relative viability (1.111 µM) | relative viability (3.333 µM) | relative viability (10 µM)
COc1cc2c(cc1O)CCN[C@]21CS[C@@H]2c3c(OC(C)=O)c(C)c4c(c3[C@H](COC1=O)N1[C@@H]2[C@H]2c3c(cc(C)c(OC)c3O)C[C@@H]([C@@H]1O)N2C)OCO4 [Trabectedin] | 1.11 ± 0.026 | 1.11 ± 0.03 | 1.11 ± 0.028 | 1.09 ± 0.018 | 1.04 ± 0.029 | 0.0507 ± 0.011 | 0.0847 ± 0.0079 | 0.102 ± 0.0031 | 0.0529 ± 0.0034 | 1.1 ± 0.03 | 1.12 ± 0.022 |  |  |  |  |  |  |  |  |  |  | 
Nc1cc(C(F)(F)F)c(-c2cc(N3CCOCC3)nc(N3CCOCC3)n2)cn1 [Buparlisib] |  |  |  |  |  |  |  |  |  |  |  | 1.067 ± 0.01 | 1.03 ± 0.024 | 1.07 ± 0.038 | 1.06 ± 0.012 | 1.07 ± 0.033 | 1.05 ± 0.013 | 1.07 ± 0.022 | 1.07 ± 0.048 | 0.944 ± 0.053 | 0.426 ± 0.026 | 0.266 ± 0.013
CC(C)NC(=O)C1CCC(n2c(NC(=O)c3ccc(F)cc3)nc3ccc(CN4CCC(C(C)(C)O)CC4)cc32)CC1 (centres undefined) [Belizatinib] |  |  |  |  |  |  |  |  |  |  |  | 1.09 ± 0.025 | 1.095 ± 0.005 | 1.109 ± 0.0095 | 1.1 ± 0.02 | 1.104 ± 0.011 | 1.1 ± 0.021 | 1.1 ± 0.016 | 1.09 ± 0.028 | 1.09 ± 0.033 | 0.996 ± 0.059 | 0.654 ± 0.033
N#CC[C@H](C1CCCC1)n1cc(-c2ncnc3[nH]ccc23)cn1 [Ruxolitinib] |  |  |  |  |  |  |  |  |  |  |  | 1.04 ± 0.024 | 1.04 ± 0.028 | 1.05 ± 0.03 | 1.03 ± 0.036 | 1.02 ± 0.033 | 1.03 ± 0.038 | 1.015 ± 0.0094 | 0.995 ± 0.062 | 0.988 ± 0.044 | 0.9816 ± 0.0032 | 0.809 ± 0.031
